Results: patent publication US20240116985A1, “STAPLED PEPTIDES AND METHODS THEREOF” (priority 2020, published 2024)

Experiment: CHI Log D procedure
Type: physicochemical
Conditions: pH 7.4

| Compound | CHI Log D | chromatographic logD |
| --- | --- | --- |
| CC(=O)N[C@@H](Cc1ccccc1)C(=O)N[C@@H](CC(=O)O)C(=O)N[C@@H](C)C(=O)N[C@]1(C)CCCCCCC=CCOC(=O)N2CC[C@@](C(=O)N[C@@H](Cc3cccnc3)C(=O)N[C@@H](Cc3c[nH]c4ccccc34)C(=O)N[C@@H](CCC(N)=O)C(N)=O)(C2)NC(=O)[C@H](C(C)C)NC(=O)[C@H](Cc2ccccc2)NC(=O)[C@H](C)NC(=O)[C@H](C)NC(=O)[C@H](CC(=O)O)NC(=O)[C@H](CC(=O)O)NC1=O (single isomer, unassigned) [I-83, Ac-Phe-Asp-Ala-R8-Asp-Asp-Ala-Ala-Phe-Val-PyrS-3PyrA-Trp-Gln-NH2] | 1.032 |  |
| CC(=O)N[C@@H](Cc1ccccc1)C(=O)N[C@@H](CC(=O)O)C(=O)N[C@@H](C)C(=O)N[C@]1(C)CCCCCCC=CCOC(=O)N2CC[C@@](C(=O)N[C@@H](Cc3ccncc3)C(=O)N[C@@H](Cc3c[nH]c4ccccc34)C(=O)N[C@@H](CCC(N)=O)C(N)=O)(C2)NC(=O)[C@H](C(C)C)NC(=O)[C@H](Cc2ccccc2)NC(=O)[C@H](C)NC(=O)[C@H](C)NC(=O)[C@H](CC(=O)O)NC(=O)[C@H](CC(=O)O)NC1=O (single isomer, unassigned) [I-85, Ac-Phe-Asp-Ala-R8-Asp-Asp-Ala-Ala-Phe-Val-PyrS-4PyrA-Trp-Gln-NH2] | 0.998 |  |
| CC(=O)N[C@@H](Cc1ccccc1)C(=O)N[C@@H](CC(=O)O)C(=O)N[C@@H](C)C(=O)N[C@]1(C)CCCCCCC=CCOC(=O)N2CC[C@@](C(=O)N[C@@H](Cc3ccccc3)C(=O)N[C@@H](Cc3c[nH]c4ccccc34)C(=O)N[C@@H](CCC(N)=O)C(N)=O)(C2)NC(=O)[C@H](C(C)C)NC(=O)[C@H](Cc2cccnc2)NC(=O)[C@H](C)NC(=O)[C@H](C)NC(=O)[C@H](CC(=O)O)NC(=O)[C@H](CC(=O)O)NC1=O (single isomer, unassigned) [I-88, Ac-Phe-Asp-Ala-R8-Asp-Asp-Ala-Ala-3PyrA-Val-PyrS-Phe-Trp-Gln-NH2] | 1.239 |  |
| CC(=O)N[C@@H](Cc1ccccc1)C(=O)N[C@@H](CC(=O)O)C(=O)N[C@@H](C)C(=O)N[C@]1(C)CCCCCCC=CCOC(=O)N2CC[C@@](C(=O)N[C@@H](Cc3ccccc3)C(=O)N[C@@H](Cc3c[nH]c4ccccc34)C(=O)N[C@@H](CCC(N)=O)C(N)=O)(C2)NC(=O)[C@H](C(C)C)NC(=O)[C@H](CC2CCCC2)NC(=O)[C@H](C)NC(=O)[C@H](C)NC(=O)[C@H](CC(=O)O)NC(=O)[C@H](CC(=O)O)NC1=O (single isomer, unassigned) [I-96, Ac-Phe-Asp-Ala-R8-Asp-Asp-Ala-Ala-CypA-Val-PyrS-Phe-Trp-Gln-NH2] | 1.343 |  |
| CC(=O)N[C@@H](Cc1ccccc1)C(=O)N[C@@H](CC(=O)O)C(=O)N[C@@H](C)C(=O)N[C@]1(C)CCCCCCC=CCOC(=O)N2CC[C@@](C(=O)N[C@@H](Cc3ccccc3)C(=O)N[C@@H](Cc3c[nH]c4ccccc34)C(=O)N[C@@H](CCC(N)=O)C(N)=O)(C2)NC(=O)[C@H](C(C)C)NC(=O)[C@H](Cc2ccccc2)NC(=O)[C@H](C)NC(=O)[C@H](C)NC(=O)[C@H](CCc2ccccc2)NC(=O)[C@H](CC(=O)O)NC1=O (single isomer, unassigned) [I-98, Ac-Phe-Asp-Ala-R8-Asp-hPhe-Ala-Ala-Phe-Val-PyrS-Phe-Trp-Gln-NH2] |  | 2.08 |
| CC(=O)N[C@@H](Cc1ccccc1)C(=O)N[C@@H](CC(=O)O)C(=O)N[C@@H](C)C(=O)N[C@]1(C)CCCCCCC=CCOC(=O)N2CC[C@@](C(=O)N[C@@H](Cc3ccccc3)C(=O)N[C@@H](Cc3c[nH]c4ccccc34)C(=O)N[C@@H](CCC(N)=O)C(N)=O)(C2)NC(=O)[C@H](C(C)C)NC(=O)[C@H](Cc2ccccc2)NC(=O)[C@H](C)NC(=O)[C@H](C)NC(=O)[C@H](Cc2ccccc2)NC(=O)[C@H](CC(=O)O)NC1=O (single isomer, unassigned) [I-99, Ac-Phe-Asp-Ala-R8-Asp-Phe-Ala-Ala-Phe-Val-PyrS-Phe-Trp-Gln-NH2] |  | 1.99 |
| COc1cccc(C[C@H](NC(=O)[C@]23CCN(C2)C(=O)OCC=CCCCCCC[C@@](C)(NC(=O)[C@H](C)NC(=O)[C@H](CC(=O)O)NC(=O)[C@H](Cc2ccccc2)NC(C)=O)C(=O)N[C@@H](CC(=O)O)C(=O)N[C@@H](CC(=O)O)C(=O)N[C@@H](C)C(=O)N[C@@H](C)C(=O)N[C@@H](Cc2ccccc2)C(=O)N[C@@H](C(C)C)C(=O)N3)C(=O)N[C@@H](Cc2c[nH]c3ccccc23)C(=O)N[C@@H](CCC(N)=O)C(N)=O)c1 (single isomer, unassigned) [I-102, Ac-Phe-Asp-Ala-R8-Asp-Asp-Ala-Ala-Phe-Val-PyrS-3OMeF-Trp-Gln-NH2] | 1.274 |  |
| CC(=O)N[C@@H](Cc1ccccc1)C(=O)N[C@@H](CC(=O)O)C(=O)N[C@@H](C)C(=O)N[C@]1(C)CCCCCCC=CCOC(=O)N2CC[C@@](C(=O)N[C@@H](Cc3ccccc3C(N)=O)C(=O)N[C@@H](Cc3c[nH]c4ccccc34)C(=O)N[C@@H](CCC(N)=O)C(N)=O)(C2)NC(=O)[C@H](C(C)C)NC(=O)[C@H](Cc2ccccc2)NC(=O)[C@H](C)NC(=O)[C@H](C)NC(=O)[C@H](CC(=O)O)NC(=O)[C@H](CC(=O)O)NC1=O (single isomer, unassigned) [I-106, Ac-Phe-Asp-Ala-R8-Asp-Asp-Ala-Ala-Phe-Val-PyrS-2CBMF-Trp-Gln-NH2] | 1.038 |  |

Same assay, conditions: pH 7.4, CHI Log D

| Compound | chromatographic logD |
| --- | --- |
| CC(=O)N[C@@H](Cc1ccccc1)C(=O)N[C@@H](CC(=O)O)C(=O)N[C@@H](C)C(=O)N[C@]1(C)CCCCCCC=CCOC(=O)N2CC[C@@](C(=O)N[C@@H](Cc3ccncc3)C(=O)N[C@@H](Cc3c[nH]c4ccccc34)C(=O)N[C@@H](CCC(N)=O)C(N)=O)(C2)NC(=O)[C@H](C(C)C)NC(=O)[C@H](Cc2ccccc2)NC(=O)[C@H](C)NC(=O)[C@H](C)NC(=O)[C@H](CC(=O)O)NC(=O)[C@H](CC(=O)O)NC1=O (single isomer, unassigned) [I-84, Ac-Phe-Asp-Ala-R8-Asp-Asp-Ala-Ala-Phe-Val-PyrS-4PyrA-Trp-Gln-NH2] | 0.985 |
| CC(=O)N[C@@H](Cc1ccccc1)C(=O)N[C@@H](CC(=O)O)C(=O)N[C@@H](C)C(=O)N[C@]1(C)CCCCCCC=CCOC(=O)N2CC[C@@](C(=O)N[C@@H](Cc3ccccc3)C(=O)N[C@@H](Cc3c[nH]c4ccccc34)C(=O)N[C@@H](CCC(N)=O)C(N)=O)(C2)NC(=O)[C@H](C(C)C)NC(=O)[C@H](Cc2cccnc2)NC(=O)[C@H](C)NC(=O)[C@H](C)NC(=O)[C@H](CC(=O)O)NC(=O)[C@H](CC(=O)O)NC1=O (single isomer, unassigned) [I-87, Ac-Phe-Asp-Ala-R8-Asp-Asp-Ala-Ala-3PyrA-Val-PyrS-Phe-Trp-Gln-NH2] | 1.15 |
| CC(=O)N[C@@H](Cc1ccccc1)C(=O)N[C@@H](CC(=O)O)C(=O)N[C@@H](C)C(=O)N[C@]1(C)CCCCCCC=CCOC(=O)N2CC[C@@](C(=O)N[C@@H](Cc3ccc(C(N)=O)cc3)C(=O)N[C@@H](Cc3c[nH]c4ccccc34)C(=O)N[C@@H](CCC(N)=O)C(N)=O)(C2)NC(=O)[C@H](C(C)C)NC(=O)[C@H](Cc2ccccc2)NC(=O)[C@H](C)NC(=O)[C@H](C)NC(=O)[C@H](CC(=O)O)NC(=O)[C@H](CC(=O)O)NC1=O (single isomer, unassigned) [I-90, Ac-Phe-Asp-Ala-R8-Asp-Asp-Ala-Ala-Phe-Val-PyrS-4CBMF-Trp-Gln-NH2] | 0.958 |
| CC(=O)N[C@@H](Cc1ccccc1)C(=O)N[C@@H](CC(=O)O)C(=O)N[C@@H](C)C(=O)N[C@]1(C)CCCCCCC=CCOC(=O)N2CC[C@@](C(=O)N[C@@H](CC3CCCC3)C(=O)N[C@@H](Cc3c[nH]c4ccccc34)C(=O)N[C@@H](CCC(N)=O)C(N)=O)(C2)NC(=O)[C@H](C(C)C)NC(=O)[C@H](Cc2ccccc2)NC(=O)[C@H](C)NC(=O)[C@H](C)NC(=O)[C@H](CC(=O)O)NC(=O)[C@H](CC(=O)O)NC1=O (single isomer, unassigned) [I-93, Ac-Phe-Asp-Ala-R8-Asp-Asp-Ala-Ala-Phe-Val-PyrS-CypA-Trp-Gln-NH2] | 1.32 |
| COc1cccc(C[C@H](NC(=O)[C@]23CCN(C2)C(=O)OCC=CCCCCCC[C@@](C)(NC(=O)[C@H](C)NC(=O)[C@H](CC(=O)O)NC(=O)[C@H](Cc2ccccc2)NC(C)=O)C(=O)N[C@@H](CC(=O)O)C(=O)N[C@@H](CC(=O)O)C(=O)N[C@@H](C)C(=O)N[C@@H](C)C(=O)N[C@@H](Cc2ccccc2)C(=O)N[C@@H](C(C)C)C(=O)N3)C(=O)N[C@@H](Cc2c[nH]c3ccccc23)C(=O)N[C@@H](CCC(N)=O)C(N)=O)c1 (single isomer, unassigned) [I-101, Ac-Phe-Asp-Ala-R8-Asp-Asp-Ala-Ala-Phe-Val-PyrS-3OMeF-Trp-Gln-NH2] | 1.33 |
| CC(=O)N[C@@H](Cc1ccccc1)C(=O)N[C@@H](CC(=O)O)C(=O)N[C@@H](C)C(=O)N[C@]1(C)CCCCCCC=CCOC(=O)N2CC[C@@](C(=O)N[C@@H](Cc3ccccc3C(N)=O)C(=O)N[C@@H](Cc3c[nH]c4ccccc34)C(=O)N[C@@H](CCC(N)=O)C(N)=O)(C2)NC(=O)[C@H](C(C)C)NC(=O)[C@H](Cc2ccccc2)NC(=O)[C@H](C)NC(=O)[C@H](C)NC(=O)[C@H](CC(=O)O)NC(=O)[C@H](CC(=O)O)NC1=O (single isomer, unassigned) [I-105, Ac-Phe-Asp-Ala-R8-Asp-Asp-Ala-Ala-Phe-Val-PyrS-2CBMF-Trp-Gln-NH2] | 1.03 |
| CC(=O)N[C@@H](Cc1ccccc1)C(=O)N[C@@H](CC(=O)O)C(=O)N[C@@H](C)C(=O)N[C@]1(C)CCCCCCC=CCOC(=O)N2CC[C@@](C(=O)N[C@@H](Cc3ccccc3)C(=O)N[C@@H](Cc3c[nH]c4ccccc34)C(=O)N[C@@H](CCC(N)=O)C(N)=O)(C2)NC(=O)[C@H](C(C)C)NC(=O)[C@H](Cc2cccc(C(N)=O)c2)NC(=O)[C@H](C)NC(=O)[C@H](C)NC(=O)[C@H](CC(=O)O)NC(=O)[C@H](CC(=O)O)NC1=O (single isomer, unassigned) [I-108, Ac-Phe-Asp-Ala-R8-Asp-Asp-Ala-Ala-3CBMF-Val-PyrS-Phe-Trp-Gln-NH2] | 1.15 |
| CC(=O)N[C@@H](Cc1ccccc1)C(=O)N[C@@H](CC(=O)O)C(=O)N[C@@H](C)C(=O)N[C@]1(C)CCCCCCC=CCOC(=O)N2CC[C@@](C(=O)N[C@@H](Cc3ccccc3)C(=O)N[C@@H](Cc3c[nH]c4ccccc34)C(=O)N[C@@H](CCC(N)=O)C(N)=O)(C2)NC(=O)[C@H](C(C)C)NC(=O)[C@H](Cc2ccc3ccccc3c2)NC(=O)[C@H](C)NC(=O)[C@H](C)NC(=O)[C@H](CC(=O)O)NC(=O)[C@H](CC(=O)O)NC1=O (single isomer, unassigned) [I-112, Ac-Phe-Asp-Ala-R8-Asp-Asp-Ala-Ala-2NapA-Val-PyrS-Phe-Trp-Gln-NH2] | 1.4 |
